Test results taken from ChEMBL document CHEMBL1127169, “Syntheses of new 3-oxa-methano-PGI1 derivatives and their biological properties” (Bioorg Med Chem Lett, 1993).
Values after ≈ are worked out from the molar mass of the structure shown.

Key:
Oryctolagus cuniculus [1] = species: Oryctolagus cuniculus; test: The compound was tested for inhibition of rabbit platelet aggregation induced by ADP, activity compared with PGE1 as standard was found to be <1/400; type: functional
Canis familiaris = species: Canis familiaris; test: The compound was tested for inhibition of dog platelet aggregation induced by ADP; type: functional; conditions: Canis lupus familiaris
Cavia porcellus = species: Cavia porcellus; test: The compound was tested for inhibition of guinea pig platelet aggregation induced by ADP; type: functional
Homo sapiens = species: Homo sapiens; test: The compound was tested for inhibition of human platelet aggregation induced by ADP; type: functional
Oryctolagus cuniculus [2] = species: Oryctolagus cuniculus; test: The compound was tested for inhibition of rabbit platelet aggregation induced by ADP; activity compared with PGE1 as standard was found to be 1/1.2; type: functional
Oryctolagus cuniculus [3] = species: Oryctolagus cuniculus; test: The compound was tested for inhibition of rabbit platelet aggregation induced by ADP; type: functional, organism-based
Oryctolagus cuniculus [4] = species: Oryctolagus cuniculus; test: The compound was tested for inhibition of rabbit platelet aggregation induced by arachidonic acid; type: functional
Oryctolagus cuniculus [5] = species: Oryctolagus cuniculus; test: The compound was tested for inhibition of rabbit platelet aggregation induced by collagen; type: functional
Rattus norvegicus = species: Rattus norvegicus; test: The compound was tested for inhibition of rat platelet aggregation induced by ADP; type: functional
Oryctolagus cuniculus [6] = species: Oryctolagus cuniculus; test: The compound was tested for inhibition of rabbit platelet aggregation induced by ADP, activity compared with PGE1 as standard was found to be 1/3.6; type: functional
Oryctolagus cuniculus [7] = species: Oryctolagus cuniculus; test: The compound was tested for inhibition of rabbit platelet aggregation induced by ADP, activity compared with PGE1 as standard was found to be 1/80.; type: functional
Oryctolagus cuniculus [8] = species: Oryctolagus cuniculus; test: The compound was tested for inhibition of rabbit platelet aggregation induced by ADP, activity compared with PGE1 as standard; type: functional

| IC50 (Canis familiaris) [µg/mL] | IC50 (Cavia porcellus) [µg/mL] | IC50 (Homo sapiens) [µg/mL] | IC50 (Oryctolagus cuniculus [3]) [µg/mL] | IC50 (Oryctolagus cuniculus [4]) [µg/mL] | IC50 (Oryctolagus cuniculus [5]) [µg/mL] | IC50 (Rattus norvegicus) [µg/mL] | Compound | Relative activity (Oryctolagus cuniculus [1]) | other results |
| --- | --- | --- | --- | --- | --- | --- | --- | --- | --- |
| – | – | – | – | – | – | – | CCCC[C@H](C)C[C@H](O)/C=C/[C@@H]1[C@H]2C[C@H](CCOCC(=O)O)C[C@H]2C[C@@H]1O | < 0.0025 | – |
| 0.0043 (≈ 0.0112 µM) | 0.0031 (≈ 0.0081 µM) | 0.0125 (≈ 0.0327 µM) | 0.0241 (≈ 0.063 µM) | 0.0476 (≈ 0.124 µM) | 0.0183 (≈ 0.0478 µM) | 0.0098 (≈ 0.0256 µM) | CCCC[C@H](C)C[C@H](O)/C=C/[C@@H]1[C@H]2C[C@H](CCOCC(=O)O)C[C@H]2C[C@H]1O | – | Relative activity (Oryctolagus cuniculus [2]): 0.833 |
| – | – | – | – | – | – | – | CCCC[C@@H](C)C[C@H](O)/C=C/[C@@H]1[C@H]2C[C@H](CCOCC(=O)O)C[C@H]2C[C@H]1O | – | Relative activity (Oryctolagus cuniculus [6]): 0.278 |
| – | – | – | – | – | – | – | CCCC[C@H](C)C[C@@H](O)/C=C/[C@@H]1[C@H]2C[C@H](CCOCC(=O)O)C[C@H]2C[C@H]1O | < 0.0025 | – |
| – | – | – | – | – | – | – | CCCCC[C@H](O)/C=C/[C@@H]1[C@H]2C[C@H](CCCCC(=O)O)C[C@H]2C[C@H]1O | – | Relative activity (Oryctolagus cuniculus [7]): 0.0125 |
| 0.0038 (≈ 0.0107 µM) | 0.0025 (≈ 0.00705 µM) | 0.0136 (≈ 0.0384 µM) | 0.0207 (≈ 0.0584 µM) | 0.0359 (≈ 0.101 µM) | 0.0132 (≈ 0.0372 µM) | 0.0344 (≈ 0.097 µM) | CCCCC[C@H](O)/C=C/[C@H]1[C@H](O)CC(=O)[C@@H]1CCCCCCC(=O)O [ALPROSTADIL] | – | Relative activity (Oryctolagus cuniculus [8]): 1 |
